# Test results as given in ChEMBL document CHEMBL2074375, “Comparison between isopropyl unoprostone and latanoprost by prostaglandin E(2)induction, affinity to prostaglandin transporter, and intraocular metabolism” (Exp Eye Res, 2002).
# Target: Solute carrier organic anion transporter family member 2A1 (Homo sapiens, UniProt Q92959)
# Experiment: TP_TRANSPORTER: inhibition of PGE1 uptake (PGE1: 0.0004 uM) in PGT-expressing HeLa cells
# Assay type: functional, cell-based
row,Ki [nM],Structure (SMILES)
1,149,O=C(O)CCC/C=C\C[C@@H]1[C@@H](CC[C@@H](O)CCc2ccccc2)[C@H](O)C[C@@H]1O [LATANOPROST ACID]
2,> 10000,CC(C)OC(=O)CCC/C=C\C[C@@H]1[C@@H](CC[C@@H](O)CCc2ccccc2)[C@H](O)C[C@@H]1O [LATANOPROST]
